# Measurements: PMC10851415 (Biochemistry, 2024)
# Assays:
# [1] = target: T1, E23K mutant PAN endonuclease (Influenza A virus, UniProt C3W5S0, DEL52-63/E23K/E64G); assay type: binding, influenza A/California/04/2009(H1N1)
# [2] = target: T1, E23K mutant PAN endonuclease; assay type: binding, influenza A/California/04/2009(H1N1); remark: listed apart in the source
# WT PAN endonuclease [3] = target: T2, WT PAN endonuclease (Influenza A virus, UniProt C3W5S0, DEL52-63/E64G); assay type: binding, influenza A/California/04/2009(H1N1)
# WT and I38T mutants = conditions: cited from earlier work
# I38T mutant = conditions: cited from earlier work
# WT PAN endonuclease [4] = target: T2, WT PAN endonuclease; assay type: binding, influenza A/California/04/2009(H1N1); conditions: 200 µM
# [5] = target: T3, I38T mutant PAN endonuclease (Influenza A virus, UniProt C3W5S0, DEL52-63/E64G/I38T); assay type: binding, influenza A/California/04/2009(H1N1)
# [6] = target: T3, I38T mutant PAN endonuclease; assay type: binding, influenza A/California/04/2009(H1N1); remark: listed apart in the source
# [7] = target: A36V mutant PAN endonuclease (Influenza A virus, UniProt C3W5S0, A36V/DEL52-63/E64G); assay type: binding, influenza A/California/04/2009(H1N1); conditions: 200 µM
substance,measurement,setting,value
baloxavir acid [BXA],difference in ΔTM compared to WT (lower),[1],< 3 °C
same,ΔTM,[1]; 200 µM,19.8 ±0.06 °C
same,Kd,[2],26.1 ± 11.2 µM
same,Kd,WT PAN endonuclease [3],0.343 ± 0.106 µM
same,ΔTM melting value between the WT and I38T mutants,WT and I38T mutants,8-10 °C
same,reduction in affinity,I38T mutant,30- to 50 fold
same,ΔTM,WT PAN endonuclease [4],22.9 ±0.08 °C
same,Kd,[5],9.3 ± 4.2 µM
same,difference in ΔTM compared to WT (lower),[6],~ 8 °C
same,ΔTM,[6]; 200 µM,14.9 ±0.04 °C
same,ΔTM,[7],21.7 ±0.11 °C
